Inconclusive results and toxic doses are left out. Rule as the data show it: active = T/C of 150% or more; inactive = T/C below 125%. Square brackets hold non-standard residues; d marks the D form. Peptide text beside a SMILES is read from it. * marks the point of attachment. Tos = Cc1ccc(S(=O)(=O)*)cc1; ΔPro = O=C(O)[CH]1C=CCN1
System: L1210 leukemia ip in BDF1 mice, survival T/C
Assay: NCI In Vivo Anticancer Drug Screen. Data for tumor model L1210 Leukemia (intraperitoneal) in B6D2F1 (BDF1) mice
Details: endpoint: mean survival time, higher = longer survival
How it was run: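 Antitumor effect is assessed in tumor-bearing animals. Survival in the compound arm is compared with a vehicle-dosed control arm and expressed as their quotient.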

[1] = dose: 100.0 mg/kg/injection, schedule: Q04DX002 (ip), vehicle: Klucel (hydroxypropylcellulose) (HPC)
[2] = dose: 200.0 mg/kg/injection, schedule: Q04DX002 (ip), vehicle: Klucel (hydroxypropylcellulose) (HPC)
[3] = dose: 100.0 mg/kg/injection, schedule: Q01DX009 (ip), vehicle: saline with Tween-80
[4] = dose: 200.0 mg/kg/injection, schedule: Q01DX009 (ip), vehicle: saline with Tween-80
[5] = dose: 400.0 mg/kg/injection, schedule: Q01DX009 (ip), vehicle: saline with Tween-80
[6] = dose: 100.0 mg/kg/injection, schedule: Q01DX009 (ip), vehicle: saline
[7] = dose: 200.0 mg/kg/injection, schedule: Q01DX009 (ip), vehicle: saline
[8] = dose: 100.0 mg/kg/injection, schedule: Q01DX009 (ip), vehicle: Klucel (hydroxypropylcellulose) (HPC)
[9] = dose: 100.0 mg/kg/injection, schedule: Q04DX003 (ip), vehicle: Klucel (hydroxypropylcellulose) (HPC)
[10] = dose: 200.0 mg/kg/injection, schedule: Q01DX009 (ip), vehicle: Klucel (hydroxypropylcellulose) (HPC)
[11] = dose: 200.0 mg/kg/injection, schedule: Q04DX003 (ip), vehicle: Klucel (hydroxypropylcellulose) (HPC)
[12] = dose: 400.0 mg/kg/injection, schedule: Q04DX003 (ip), vehicle: Klucel (hydroxypropylcellulose) (HPC)
[13] = dose: 100.0 mg/kg/injection, schedule: Q04DX003 (ip), vehicle: saline
[14] = dose: 200.0 mg/kg/injection, schedule: Q04DX003 (ip), vehicle: saline

Measured: T/C

O=C(O)COc1ccccc1[N+](=O)[O-]
inactive: [1] 96 % of control | [2] 100 % of control | dose: 400.0 mg/kg/injection, schedule: Q04DX002 (ip), vehicle: Klucel (hydroxypropylcellulose) (HPC) 96 % of control

CCC(C)NNC(C)CC (configuration not stated)
inactive: dose: 75.0 mg/kg/injection, schedule: Q01DX001 (ip), vehicle: other 98 % of control | dose: 150.0 mg/kg/injection, schedule: Q01DX001 (ip), vehicle: other 112 % of control | dose: 300.0 mg/kg/injection, schedule: Q01DX001 (ip), vehicle: other 103 % of control

COc1c(NC(=O)COc2ccc(Cl)cc2)cccc1[N+](=O)[O-]
inactive: [3] 96 % of control | [4] 100 % of control | [5] 94 % of control

CCCC(O)C(CC)CO (configuration not stated)
inactive: [6] 102 % of control | [7] 100 % of control | dose: 400.0 mg/kg/injection, schedule: Q01DX009 (ip), vehicle: saline 104 % of control

Cc1nnc2c3ccccc3c(-c3ccccc3)nn12
inactive: dose: 100.0 mg/kg/injection, schedule: Q01DX001 (ip), vehicle: carboxymethylcellulose (CMC) 104 % of control | dose: 200.0 mg/kg/injection, schedule: Q01DX001 (ip), vehicle: carboxymethylcellulose (CMC) 106 % of control

N#CC1(Cc2ccc(OCc3ccccc3)c(OCc3ccccc3)c2)c2ccccc2C=CN1C(=O)c1ccccc1 (configuration not stated)
inactive: dose: 25.0 mg/kg/injection, schedule: Q04DX003 (ip), vehicle: saline with Tween-80 100 % of control | dose: 50.0 mg/kg/injection, schedule: Q04DX003 (ip), vehicle: saline with Tween-80 91 % of control | dose: 100.0 mg/kg/injection, schedule: Q04DX003 (ip), vehicle: saline with Tween-80 89 % of control

CCOC(=O)C(/C=N/C(N)=O)=C(\C)O
inactive: [8] 105 % of control | [9] 102 % of control | [10] 95 % of control | [11] 101 % of control | dose: 400.0 mg/kg/injection, schedule: Q01DX009 (ip), vehicle: Klucel (hydroxypropylcellulose) (HPC) 106 % of control | [12] 92 % of control

NC(CCC(=O)NC(CSCCC(=O)c1ccccc1)C(=O)NCC(=O)O)C(=O)O (configuration not stated)
inactive: dose: 25.0 mg/kg/injection, schedule: Q01DX009 (ip), vehicle: water 96 % of control | dose: 50.0 mg/kg/injection, schedule: Q01DX009 (ip), vehicle: water 91 % of control | dose: 100.0 mg/kg/injection, schedule: Q01DX009 (ip), vehicle: water 94 % of control | dose: 200.0 mg/kg/injection, schedule: Q01DX009 (ip), vehicle: water 92 % of control | dose: 400.0 mg/kg/injection, schedule: Q01DX009 (ip), vehicle: water 97 % of control

CCCCCCCN(CCCCCCC)C(C)=O
inactive: dose: 100.0 mg/kg/injection, schedule: Q01DX001 (ip), vehicle: other 93 % of control | dose: 200.0 mg/kg/injection, schedule: Q01DX001 (ip), vehicle: other 93 % of control | dose: 400.0 mg/kg/injection, schedule: Q01DX001 (ip), vehicle: other 93 % of control

N/N=C(\c1ccccc1)c1ccncc1
inactive: dose: 44.0 mg/kg/injection, schedule: Q01DX Z (ip), vehicle: methylcellulose (MC) 106 % of control | dose: 66.0 mg/kg/injection, schedule: Q01DX Z (ip), vehicle: methylcellulose (MC) 90 % of control | dose: 100.0 mg/kg/injection, schedule: Q01DX Z (ip), vehicle: methylcellulose (MC) 87 % of control

CCCCCCCCCCCCC(O)C(=O)O (configuration not stated)
inactive: [9] 95 % of control | [11] 95 % of control | [12] 94 % of control

C(=Nc1ccc2c(c1)Cc1ccccc1-2)c1ccccc1
inactive: [8] 104 % of control | [9] 100 % of control | [10] 96 % of control | [11] 95 % of control | [12] 103 % of control

CNC(=O)Oc1ccc(Br)cc1Br
inactive: [8] 101 % of control | [10] 100 % of control

O=C(O)CCI
inactive: dose: 50.0 mg/kg/injection, schedule: Q01DX009 (ip), vehicle: saline 98 % of control | [6] 90 % of control | dose: 100.0 mg/kg/injection, schedule: Q04DX003 (ip), vehicle: other 102 % of control | [7] 100 % of control | dose: 200.0 mg/kg/injection, schedule: Q04DX003 (ip), vehicle: other 96 % of control

CC1CN=C(c2cccc(NC(=O)NCCCCNC(=O)Nc3cccc(C4=NCC(C)N4)c3)c2)N1 (configuration not stated)
inactive: dose: 6.5 mg/kg/injection, schedule: Q01DX Z (ip), vehicle: carboxymethylcellulose (CMC) 94 % of control

CC12CCc3occc3C1CCC13CC(CO)C(O)(CCC12)C3 (configuration not stated)
inactive: [13] 94 % of control | [14] 93 % of control

O=C(c1ccc(Cl)cc1Cl)C(Cl)Cl
inactive: dose: 30.0 mg/kg/injection, schedule: Q01DX015 (ip), vehicle: saline 98 % of control | dose: 60.0 mg/kg/injection, schedule: Q01DX015 (ip), vehicle: saline 91 % of control | dose: 120.0 mg/kg/injection, schedule: Q01DX015 (ip), vehicle: saline 98 % of control

COC(=O)C1C=CCN1C(=O)C(Cc1ccccc1)NS(=O)(=O)c1ccc(C)cc1 (stereo not drawn) (Tos-Phe-[ΔPro]-OMe; configuration not given here)
inactive: dose: 50.0 mg/kg/injection, schedule: Q01DX005 (ip), vehicle: saline 96 % of control | dose: 100.0 mg/kg/injection, schedule: Q01DX005 (ip), vehicle: saline 107 % of control | dose: 200.0 mg/kg/injection, schedule: Q01DX005 (ip), vehicle: saline 105 % of control

COc1cc(C=O)ccc1OC(=O)Nc1cccc(Cl)c1Cl
inactive: [3] 90 % of control | [4] 90 % of control | [5] 92 % of control

C1CCC(C2CCCC[N-]2)[N-]C1.[Cl][Cu][Cl] (configuration not stated)
inactive: dose: 1.56 mg/kg/injection, schedule: Q01DX009 (ip), vehicle: Klucel (hydroxypropylcellulose) (HPC) 95 % of control | dose: 3.13 mg/kg/injection, schedule: Q01DX009 (ip), vehicle: Klucel (hydroxypropylcellulose) (HPC) 102 % of control | dose: 6.25 mg/kg/injection, schedule: Q01DX009 (ip), vehicle: Klucel (hydroxypropylcellulose) (HPC) 86 % of control | [9] 109 % of control | [11] 95 % of control | [12] 101 % of control

CCC(O)CC(=O)O (configuration not stated) (tested in a mixture with another compound)
inactive: dose: 25.0 mg/kg/injection, schedule: Q04DX002 (ip), vehicle: Klucel (hydroxypropylcellulose) (HPC) 104 % of control | dose: 50.0 mg/kg/injection, schedule: Q04DX002 (ip), vehicle: Klucel (hydroxypropylcellulose) (HPC) 101 % of control | [1] 101 % of control

O=Nc1c(S(=O)(=O)O)cc2cc(S(=O)(=O)O)cc(O)c2c1O.[Cu+2]
inactive: dose: 0.16 mg/kg/injection, schedule: Q01DX009 (ip), vehicle: saline 95 % of control | dose: 0.31 mg/kg/injection, schedule: Q01DX009 (ip), vehicle: saline 103 % of control | dose: 0.63 mg/kg/injection, schedule: Q01DX009 (ip), vehicle: saline 92 % of control | dose: 1.25 mg/kg/injection, schedule: Q04DX003 (ip), vehicle: saline 102 % of control | dose: 2.5 mg/kg/injection, schedule: Q04DX003 (ip), vehicle: saline 102 % of control | dose: 5.0 mg/kg/injection, schedule: Q04DX003 (ip), vehicle: saline 94 % of control

OCC1CCCCC1Cc1ccc(F)c2ccccc12 (configuration not stated)
inactive: dose: 100.0 mg/kg/injection, schedule: Q01DX001 (ip), vehicle: Klucel (hydroxypropylcellulose) (HPC) 98 % of control | dose: 200.0 mg/kg/injection, schedule: Q01DX001 (ip), vehicle: Klucel (hydroxypropylcellulose) (HPC) 93 % of control | dose: 400.0 mg/kg/injection, schedule: Q01DX001 (ip), vehicle: Klucel (hydroxypropylcellulose) (HPC) 102 % of control

CCCC(=O)OCc1cnc(SC)nc1N
inactive: dose: 100.0 mg/kg/injection, schedule: Q01DX001 (ip), vehicle: saline 100 % of control | dose: 200.0 mg/kg/injection, schedule: Q01DX001 (ip), vehicle: saline 97 % of control | dose: 400.0 mg/kg/injection, schedule: Q01DX001 (ip), vehicle: saline 93 % of control

Cc1ccc(C(=O)/C=C\c2ccc(Cl)cc2Cl)cc1
inactive: [9] 92 % of control | [11] 100 % of control | [12] 92 % of control

CS(=O)(=O)c1nc2ccccc2[nH]1
inactive: [1] 105 % of control | [2] 97 % of control

O=C1CCC(=O)C12CCNCC2
inactive: [6] 97 % of control | [13] 100 % of control | [7] 104 % of control | [14] 88 % of control | dose: 400.0 mg/kg/injection, schedule: Q04DX003 (ip), vehicle: saline 107 % of control

From PubChem BioAssay AID248 (DTP/NCI, 2004)
